Reference: patent US11576381B2, “Composition and a method of using the composition to increase wheat yield” (priority 2019, dated 2023)
Where “and” joins values, the source holds several entries; their conditions need not be identical. Equal values may be shown once.

Tests used:
grasses = experiment: Grass control in QPE-tolerant wheat treated with herbicides; type: in vivo
Procedure: (§1) Yield of QPE-tolerant wheat in bushels per acre was measured under the following conditions: where no QPE was applied, where QPE was applied alone, where one or more broadleaf herbicides were applied, and where a combination of a QPE source and a broadleaf herbicide were applied together. For each test condition, the level of both grass control and broadleaf control was recorded. Finally, the application rate of each active substance was recorded. One QPE source is Aggressor™ which comprises Quizalofop-P-ethyl 10.3%.

broadleaf weeds = experiment: Broadleaf weed control in QPE-tolerant wheat treated with herbicides; type: in vivo
Procedure: as §1

QPE-tolerant wheat = experiment: Yield of QPE-tolerant wheat in bushels per acre; type: in vivo
Procedure: as §1

[1] = soil; cited from earlier work
[2] = Treatment B Rate/Acre .60 oz/acre
[3] = Treatment B Rate/Acre 2 oz/acre
[4] = Treatment B Rate/Acre .30 oz/acre
[5] = Treatment B Rate/Acre 1.00 lb ai/acre
[6] = Treatment B Rate/Acre .50 lb ai/acre
[7] = Treatment B Rate/Acre .90 oz/acre
[8] = Treatment B Rate/Acre 3 fl oz/acre
[9] = Treatment B Rate/Acre 4 fl oz/acre
[10] = Treatment B Rate/Acre 5 fl oz/acre
[11] = Treatment B Rate/Acre .66 oz/acre
[12] = Treatment B Rate/Acre 4.75/acre

For `COc1nc(C)nc(NC(=O)NS(=O)(=O)c2ccccc2CCC(F)(F)F)n1` [Prosulfuron], which “Grass Control” value (grasses; [2]) is on record?
The value was 0%.

What about the “Broadleaf Weed Control” value (broadleaf weeds; [2]) of the same compound?
Its value is 85%.

What about the Yield (QPE-tolerant wheat; [2]) of the same compound?
Its Yield is 59.2 Bu/acre.

For `COc1nn(C(=O)NS(=O)(=O)c2ccccc2OC(F)(F)F)c(=O)n1C` [Flucarbazone], which “Grass Control” value (grasses; [3]) is on record?
The value was 65%.

What about the “Broadleaf Weed Control” value (broadleaf weeds; [3]) of the same compound?
The value was 55%.

And the Yield (QPE-tolerant wheat; [3])?
Its Yield is 67.3 Bu/acre.

With `COc1nc(C)nc(N(C)C(=O)NS(=O)(=O)c2ccccc2C(=O)O)n1` [Tribenuron] as the compound, how does the “Grass Control” value (grasses; [4]) read?
Its value is 0%.

What about the “Broadleaf Weed Control” value (broadleaf weeds; [4]) of the same compound?
The value was 93%.

And the Yield (QPE-tolerant wheat; [4])?
Its Yield is 58.4 Bu/acre.

What does the source list for `CNC.Cc1cc(Cl)ccc1OCC(=O)O` [MCPA Amine]?
Grass Control (grasses; [5]): 0%; Grass Control (grasses; [6]): 0%; Broadleaf Weed Control (broadleaf weeds; [5]): 93%; Broadleaf Weed Control (broadleaf weeds; [6]): 78%; Yield (QPE-tolerant wheat; [5]): 56.9 Bu/acre; Yield (QPE-tolerant wheat; [6]): 52.4 Bu/acre

For `CNC.O=C(O)COc1ccc(Cl)cc1Cl` [2,4-D Amine], which “Grass Control” value (grasses; [5]) is on record?
Its value is 0%.

What about the “Grass Control” value (grasses; [6]) of the same compound?
The value was 0%.

What about the “Broadleaf Weed Control” value (broadleaf weeds; [5]) of the same compound?
The value was 90%.

What about the “Broadleaf Weed Control” value (broadleaf weeds; [6]) of the same compound?
Its value is 75%.

And the Yield (QPE-tolerant wheat; [5])?
Its Yield is 56.8 Bu/acre.

What about the Yield (QPE-tolerant wheat; [6]) of the same compound?
The Yield was 55.7 Bu/acre.

With `CCCOc1nn(C(=O)[N-]S(=O)(=O)c2ccccc2C(=O)OC)c(=O)n1C.[Na+]` [Propoxycarbazone] as the compound, how does the “Grass Control” value (grasses; [7]) read?
The value was 45%.

And the “Broadleaf Weed Control” value (broadleaf weeds; [7])?
The value was 65%.

What about the Yield (QPE-tolerant wheat; [7]) of the same compound?
Its Yield is 63.2 Bu/acre.

What does the source list for `COc1cc(OC)n2nc(NS(=O)(=O)c3c(C(F)(F)F)ccnc3OC)nc2n1` [Pyroxsulam]?
Grass Control (grasses; [3]): 70%; Broadleaf Weed Control (broadleaf weeds; [3]): 30%; Yield (QPE-tolerant wheat; [3]): 60.3 Bu/acre

Which Koc [1] does the source give for `CCOC(=O)[C@@H](C)Oc1ccc(Oc2cnc3cc(Cl)ccc3n2)cc1` [Quizalofop-p-ethyl] here?
Its Koc is 510 and 570.

Which “Grass Control” value (grasses; [8]) does the source give for `COc1c(Cl)ccc(Cl)c1C(=O)O` [Dicamba] here?
Its value is 0%.

What about the “Grass Control” value (grasses; [9]) of the same compound?
The value was 0%.

What about the “Grass Control” value (grasses; [10]) of the same compound?
The value was 0%.

And the “Broadleaf Weed Control” value (broadleaf weeds; [8])?
Its value is 90%.

And the “Broadleaf Weed Control” value (broadleaf weeds; [9])?
The value was 93%.

What about the “Broadleaf Weed Control” value (broadleaf weeds; [10]) of the same compound?
Its value is 96%.

And the Yield (QPE-tolerant wheat; [8])?
Its Yield is 56.7 Bu/acre.

What about the Yield (QPE-tolerant wheat; [9]) of the same compound?
The Yield was 57.9 Bu/acre.

What about the Yield (QPE-tolerant wheat; [10]) of the same compound?
The Yield was 58.4 Bu/acre.

For `CCS(=O)(=O)c1nc2ccccn2c1S(=O)(=O)NC(=O)Nc1nc(OC)cc(OC)n1` [Sulfosulfuron], which “Grass Control” value (grasses; [11]) is on record?
Its value is 55%.

And the “Broadleaf Weed Control” value (broadleaf weeds; [11])?
Its value is 60%.

What does the source list for `COc1cc(OC)nc(NC(=O)NS(=O)(=O)c2cc(CNS(C)(=O)=O)ccc2C(=O)O)n1` [Mesosulfuron]?
Grass Control (grasses; [12]): 35%; Broadleaf Weed Control (broadleaf weeds; [12]): 50%; Yield (QPE-tolerant wheat; [12]): 60.4 Bu/acre
